Measurements: patent publication US20200187502A1, “MICROBIOCIDAL OXADIAZOLE DERIVATIVES” (SYNGENTA PARTICIPATIONS AG, priority 2017, published 2020)

Experiments:
[1] = test system: Puccinia recondita f. Sp. Tritici; assay: Fungicidal activity, wheat leaf disc preventative (brown rust); assay type: in vivo; conditions: foliar, 200 ppm in the applied formulation, wheat leaf segments cv. Kanzler, compared to untreated control, 7 to 9 days after application, read-out: disease control
Method in brief: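 Wheat cv. Kanzler leaf segments on agar were sprayed with formulated compound in water, then inoculated with spores 1 day later. Incubated at 19° C, 75% rh, 12 h light/12 h dark; percent disease control versus untreated scored 7 to 9 days after application.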

[2] = test system: Puccinia recondita f. Sp. Tritici; assay: Fungicidal activity, wheat leaf disc curative (brown rust); assay type: in vivo; conditions: foliar, 200 ppm in the applied formulation, wheat leaf segments cv. Kanzler, curative (applied 1 day after inoculation), compared to untreated control, 6 to 8 days after application, read-out: disease control
Method in brief: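 Curative test: wheat leaf segments cv. Kanzler on agar inoculated with spore suspension, kept dark at 19 °C/75% RH, then sprayed 1 day post-inoculation with compound diluted in water. Incubated at 19 °C, 75% RH, 12 h light/dark; percent disease control versus untreated scored 6–8 days after application.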

[3] = test system: Phakopsora pachyrhizi; assay: Fungicidal activity, soybean leaf disc preventative (Asian soybean rust); assay type: in vivo; conditions: foliar, 200 ppm in the applied formulation, soybean leaf disks, compared to untreated control, 12 to 14 days after application, read-out: disease control
Method in brief: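 Read-out is percent disease control relative to untreated check discs, assessed once untreated discs show adequate disease, 12 to 14 days after application. Compounds, tested at 200 ppm in the applied formulation, are sprayed onto soybean leaf discs one day before inoculation with a spore suspension.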

[4] = test system: Glomerella lacenarium (Colletotrichum lacenarium); assay: Fungicidal activity, liquid culture, cucumber preventative (anthracnose); assay type: cell-based; conditions: 20 ppm in the applied formulation, liquid culture in PDB, inhibition of growth measured photometrically 3 to 4 days after application, compared to untreated control, read-out: disease control
Method in brief: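 Cryostored conidia mixed into potato dextrose broth and added to DMSO compound solution in microtiter plates. Incubated at 24 °C. Growth inhibition read photometrically 3–4 days after application as percent activity versus untreated check.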

CC(C)(C)OC(=O)NCc1ccc(-c2noc(C(F)(F)F)n2)s1 [Compound 2.1, tert-butyl N-[[5-[5-(trifluoromethyl)-1,2,4-oxadiazol-3-yl]-2-thienyl]methyl]carbamate]
≥ 80%: pest or weed control at 200 ppm [1] | pest or weed control at 200 ppm [2] | pest or weed control at 200 ppm [3] | inhibition of growth at 20 ppm [4]

CCC(C)C(=O)NCc1ccc(-c2noc(C(F)(F)F)n2)s1 (stereo not drawn) [Compound 2.7, 2-methyl-N-[[5-[5-(trifluoromethyl)-1,2,4-oxadiazol-3-yl]-2-thienyl]methyl]butanamide]
≥ 80%: pest or weed control at 200 ppm [1] | pest or weed control at 200 ppm [2] | pest or weed control at 200 ppm [3] | inhibition of growth at 20 ppm [4]

C#CCNC(=O)N(Cc1ccc(-c2noc(C(F)(F)F)n2)s1)OCC(F)F [Compound 4.93, 1-(2,2-difluoroethoxy)-3-prop-2-ynyl-1-[[5-[5-(trifluoromethyl)-1,2,4-oxadiazol-3-yl]-2-thienyl]methyl]urea]
≥ 80%: pest or weed control at 200 ppm [1] | pest or weed control at 200 ppm [2] | pest or weed control at 200 ppm [3] | inhibition of growth at 20 ppm [4]

CON(Cc1ccc(-c2noc(C(F)(F)F)n2)s1)C(=O)C(N)=O [Compound 1.24, N′-methoxy-N′-[[5-[5-(trifluoromethyl)-1,2,4-oxadiazol-3-yl]-2-thienyl]methyl]oxamide]
≥ 80%: pest or weed control at 200 ppm [1] | pest or weed control at 200 ppm [2] | pest or weed control at 200 ppm [3] | inhibition of growth at 20 ppm [4]

C=CCN(C)C(=O)N(Cc1ccc(-c2noc(C(F)(F)F)n2)s1)OC [Compound 1.52, 1-allyl-3-methoxy-1-methyl-3-[[5-[5-(trifluoromethyl)-1,2,4-oxadiazol-3-yl]-2-thienyl]methyl]urea]
≥ 80%: pest or weed control at 200 ppm [1] | pest or weed control at 200 ppm [2] | pest or weed control at 200 ppm [3] | inhibition of growth at 20 ppm [4]

CCC(=O)N(Cc1ccc(-c2noc(C(F)(F)F)n2)s1)OC [Compound 1.12, N-methoxy-N-[[5-[5-(trifluoromethyl)-1,2,4-oxadiazol-3-yl]-2-thienyl]methyl]propanamide]
≥ 80%: pest or weed control at 200 ppm [1] | pest or weed control at 200 ppm [2] | pest or weed control at 200 ppm [3] | inhibition of growth at 20 ppm [4]

COCCCC(=O)N(C)Cc1ccc(-c2noc(C(F)(F)F)n2)s1 [Compound 4.38, 4-methoxy-N-methyl-N-[[5-[5-(trifluoromethyl)-1,2,4-oxadiazol-3-yl]-2-thienyl]methyl]butanamide]
≥ 80%: pest or weed control at 200 ppm [1] | pest or weed control at 200 ppm [2] | pest or weed control at 200 ppm [3] | inhibition of growth at 20 ppm [4]

CCN(Cc1ccc(-c2noc(C(F)(F)F)n2)s1)C(=O)NC1CC1 [Compound 5.3, 3-cyclopropyl-1-ethyl-1-[[5-[5-(trifluoromethyl)-1,2,4-oxadiazol-3-yl]-2-thienyl]methyl]urea]
≥ 80%: pest or weed control at 200 ppm [1] | pest or weed control at 200 ppm [2] | pest or weed control at 200 ppm [3] | inhibition of growth at 20 ppm [4]

CCN(Cc1ccc(-c2noc(C(F)(F)F)n2)s1)C(=O)CCOC [Compound 4.25, N-ethyl-3-methoxy-N-[[5-[5-(trifluoromethyl)-1,2,4-oxadiazol-3-yl]-2-thienyl]methyl]propanamide]
≥ 80%: pest or weed control at 200 ppm [1] | pest or weed control at 200 ppm [2] | pest or weed control at 200 ppm [3] | inhibition of growth at 20 ppm [4]

CC(=O)NCc1ccc(-c2noc(C(F)(F)F)n2)s1 [Compound 2.11, N-[[5-[5-(trifluoromethyl)-1,2,4-oxadiazol-3-yl]-2-thienyl]methyl]acetamide]
≥ 80%: pest or weed control at 200 ppm [1] | pest or weed control at 200 ppm [2] | pest or weed control at 200 ppm [3] | inhibition of growth at 20 ppm [4]

O=C(NCc1ccc(-c2noc(C(F)(F)F)n2)s1)C1CCOC1 (stereo not drawn) [Compound 3.3, N-[[5-[5-(trifluoromethyl)-1,2,4-oxadiazol-3-yl]-2-thienyl]methyl]tetrahydrofuran-3-carboxamide]
≥ 80%: pest or weed control at 200 ppm [1] | pest or weed control at 200 ppm [2] | pest or weed control at 200 ppm [3] | inhibition of growth at 20 ppm [4]

COC(C)C(=O)NCc1ccc(-c2noc(C(F)(F)F)n2)s1 (stereo not drawn) [Compound 2.6, 2-methoxy-N-[[5-[5-(trifluoromethyl)-1,2,4-oxadiazol-3-yl]-2-thienyl]methyl]propanamide]
≥ 80%: pest or weed control at 200 ppm [1] | pest or weed control at 200 ppm [2] | pest or weed control at 200 ppm [3] | inhibition of growth at 20 ppm [4]

CCNC(=O)N(CC)Cc1ccc(-c2noc(C(F)(F)F)n2)s1 [Compound 4.8, 1,3-diethyl-1-[[5-[5-(trifluoromethyl)-1,2,4-oxadiazol-3-yl]-2-thienyl]methyl]urea]
≥ 80%: pest or weed control at 200 ppm [1] | pest or weed control at 200 ppm [2] | pest or weed control at 200 ppm [3] | inhibition of growth at 20 ppm [4]

COCCNC(=O)N(C)Cc1ccc(-c2noc(C(F)(F)F)n2)s1 [Compound 4.78, 3-(2-methoxyethyl)-1-methyl-1-[[5-[5-(trifluoromethyl)-1,2,4-oxadiazol-3-yl]-2-thienyl]methyl]urea]
≥ 80%: pest or weed control at 200 ppm [1] | pest or weed control at 200 ppm [2] | pest or weed control at 200 ppm [3] | inhibition of growth at 20 ppm [4]

COCCNC(=O)N(Cc1ccc(-c2noc(C(F)(F)F)n2)s1)OC [Compound 1.53, 1-methoxy-3-(2-methoxyethyl)-1-[[5-[5-(trifluoromethyl)-1,2,4-oxadiazol-3-yl]-2-thienyl]methyl]urea]
≥ 80%: pest or weed control at 200 ppm [1] | pest or weed control at 200 ppm [2] | pest or weed control at 200 ppm [3] | inhibition of growth at 20 ppm [4]

CN(Cc1ccc(-c2noc(C(F)(F)F)n2)s1)C(=O)CC(F)(F)F [Compound 4.40, 3,3,3-trifluoro-N-methyl-N-[[5-[5-(trifluoromethyl)-1,2,4-oxadiazol-3-yl]-2-thienyl]methyl]propanamide]
≥ 80%: pest or weed control at 200 ppm [1] | pest or weed control at 200 ppm [2] | pest or weed control at 200 ppm [3] | inhibition of growth at 20 ppm [4]

CCC(=O)N(Cc1ccc(-c2noc(C(F)(F)F)n2)s1)C1CC1 [Compound 4.56, N-cyclopropyl-N-[[5-[5-(trifluoromethyl)-1,2,4-oxadiazol-3-yl]-2-thienyl]methyl]propanamide]
≥ 80%: pest or weed control at 200 ppm [1] | pest or weed control at 200 ppm [2] | pest or weed control at 200 ppm [3] | inhibition of growth at 20 ppm [4]

O=C(NCc1ccc(-c2noc(C(F)(F)F)n2)s1)C1CC1(F)F (stereo not drawn) [Compound 3.2, 2,2-difluoro-N-[[5-[5-(trifluoromethyl)-1,2,4-oxadiazol-3-yl]-2-thienyl]methyl]cyclopropanecarboxamide]
≥ 80%: pest or weed control at 200 ppm [1] | pest or weed control at 200 ppm [2] | pest or weed control at 200 ppm [3] | inhibition of growth at 20 ppm [4]

O=C(C1CC1)N(Cc1ccc(-c2noc(C(F)(F)F)n2)s1)C1CC1 [Compound 5.2, N-cyclopropyl-N-[[5-[5-(trifluoromethyl)-1,2,4-oxadiazol-3-yl]-2-thienyl]methyl]cyclopropanecarboxamide]
≥ 80%: pest or weed control at 200 ppm [1] | pest or weed control at 200 ppm [2] | pest or weed control at 200 ppm [3] | inhibition of growth at 20 ppm [4]

CON(Cc1ccc(-c2noc(C(F)(F)F)n2)s1)C(=O)C1(C)COC1 [Compound 1.16, N-methoxy-3-methyl-N-[[5-[5-(trifluoromethyl)-1,2,4-oxadiazol-3-yl]-2-thienyl]methyl]oxetane-3-carboxamide]
≥ 80%: pest or weed control at 200 ppm [1] | pest or weed control at 200 ppm [2] | pest or weed control at 200 ppm [3] | inhibition of growth at 20 ppm [4]

CNC(=O)N(Cc1ccc(-c2noc(C(F)(F)F)n2)s1)C1CC1 [Compound 4.2, 1-cyclopropyl-3-methyl-1-[[5-[5-(trifluoromethyl)-1,2,4-oxadiazol-3-yl]-2-thienyl]methyl]urea]
≥ 80%: pest or weed control at 200 ppm [1] | pest or weed control at 200 ppm [2] | pest or weed control at 200 ppm [3] | inhibition of growth at 20 ppm [4]

CON(Cc1ccc(-c2noc(C(F)(F)F)n2)s1)C(=O)CC1CC1 [Compound 1.22, 2-cyclopropyl-N-methoxy-N-[[5-[5-(trifluoromethyl)-1,2,4-oxadiazol-3-yl]-2-thienyl]methyl]acetamide]
≥ 80%: pest or weed control at 200 ppm [1] | pest or weed control at 200 ppm [2] | pest or weed control at 200 ppm [3] | inhibition of growth at 20 ppm [4]

CCNC(=O)N(Cc1ccc(-c2noc(C(F)(F)F)n2)s1)C1CC1 [Compound 4.87, 1-cyclopropyl-3-ethyl-1-[[5-[5-(trifluoromethyl)-1,2,4-oxadiazol-3-yl]-2-thienyl]methyl]urea]
≥ 80%: pest or weed control at 200 ppm [1] | pest or weed control at 200 ppm [2] | pest or weed control at 200 ppm [3] | inhibition of growth at 20 ppm [4]

CCCC(=O)NCc1ccc(-c2noc(C(F)(F)F)n2)s1 [Compound 2.8, N-[[5-[5-(trifluoromethyl)-1,2,4-oxadiazol-3-yl]-2-thienyl]methyl]butanamide]
≥ 80%: pest or weed control at 200 ppm [1] | pest or weed control at 200 ppm [2] | pest or weed control at 200 ppm [3] | inhibition of growth at 20 ppm [4]
